Laboratory results reported in patent US9789202B2, “Method for treating cancer using an interferon alpha conjugate” (HANMI SCIENCE CO., LTD., priority 2011, dated 2017).

Experiments:
[1] = tested on: human pancreatic cancer cells (Miapaca-2); assay: In vivo anti-cancer effect in nude mice subcutaneously transplanted with human pancreatic cancer cells (Miapaca-2); parameters: species or system Athymic BALB/c nude mice; conditions: Miapaca-2 xenograft, measured for 4 weeks; gemcitabine 40 mg/kg Q3D x 4 weeks i.v.; conjugate or PEG interferon alpha 30 mcg/kg QW x 4 weeks s.c.; combinations at the same doses
Description: 5-week old Athymic BALB/c nude mice were subcutaneously injected with 1×10^8/4 mL of Miapaca-2 cells cultured in vitro, and then cultured. Thereafter, the mice were subcutaneously transplanted with solid cancer having a size of 30 mm^2. Then, the mice were divided into 5 groups (G1, G2, G3, G4, G5) of seven mice each according to the size of cancer subcutaneously transplanted.
Single administrations of a control group (Vehicle), gemcitabine (40 mg/kg, Q3D, 3 weeks, intravenous injection), PEG-modified interferon alpha (30 mcg/kg, QW×4 weeks, subcutaneous injection), and interferon alpha conjugate of the present invention (30 mcg/kg, QW, 4 weeks, subcutaneous injection), and co-administration of gemcitabine (40 mg/kg, Q3D, 4 weeks, intravenous injection) and interferon alpha conjugate of the present invention (30 mcg/kg, QW, 4 weeks, subcutaneous injection) to the groups were performed. After administration of the experimental substances for 3 weeks, changes in the tumor size of each group were measured for 4 weeks, and tumor inhibition rate relative to the control group was determined (Table 5).

[2] = tested on: human pancreatic cancer cells (Panc-1); assay: In vivo anti-cancer effect in nude mice subcutaneously transplanted with human pancreatic cancer cells (Panc-1); parameters: species or system Athymic BALB/c nude mice; conditions: Panc-1 xenograft, measured for 4 weeks; gemcitabine 40 mg/kg Q3D x 3 weeks i.v.; conjugate or PEG interferon alpha 30 mcg/kg QW x 3 weeks s.c.; combination at the same doses
Description: 5-week old Athymic BALB/c nude mice were subcutaneously injected with 1×10^8/4 mL of Panc-1 cells cultured in vitro, and then cultured. Thereafter, the mice were subcutaneously transplanted with solid cancer having a size of 30 mm^2. Then, the mice were divided into 5 groups (G1, G2, G3, G4, G5) of six mice each according to the size of cancer subcutaneously transplanted.
Single administrations of a control group (Vehicle), gemcitabine (40 mg/kg, Q3D, 3 weeks, intravenous injection), PEG-modified interferon alpha (30 mcg/kg, QW×3 weeks, subcutaneous injection), and interferon alpha conjugate of the present invention (30 mcg/kg, QW, 3 weeks, subcutaneous injection), and co-administration of gemcitabine (40 mg/kg, Q3D, 3 weeks, intravenous injection) and interferon alpha conjugate of the present invention (30 mcg/kg, QW, 3 weeks, subcutaneous injection) to the groups were performed. After administration of the experimental substances for 3 weeks, changes in the tumor size of each group were measured for 4 weeks, and tumor inhibition rate relative to the control group was determined (Table 4).

[3] = tested on: human pancreatic cancer cells (BxPC3); assay: In vivo anti-cancer effect in nude mice subcutaneously transplanted with human pancreatic cancer cells (BxPC3); parameters: species or system Athymic BALB/c nude mice; conditions: BxPC3 xenograft, 4 weeks; gemcitabine 30 mg/kg Q3D x 4 weeks i.v.; conjugate or PEG interferon alpha 30 mcg/kg QW x 4 weeks s.c.; combination at the same doses
Description: In order to measure the in vivo anti-cancer effect of the interferon alpha conjugate prepared in Example 1, changes in the tumor size were examined in the mice subcutaneously transplanted with human pancreatic cancer cells (BxPC3). 5-week old Athymic BALB/c nude mice were subcutaneously injected with 1×10^8/4 mL of BxPC3 cells cultured in vitro, and then cultured. […] After administration of the experimental substances, changes in the tumor size of each group were measured for 4 weeks, and tumor inhibition rate relative to the control group was determined (Table 3).

pancreatic cancer = conditions: cited from earlier work
[4] = tested on: human ovarian cancer cells (SK-OV-3); assay: In vivo anti-cancer effect in nude mice subcutaneously transplanted with human ovarian cancer cells (SK-OV-3); parameters: species or system Athymic BALB/c nude mice; conditions: SK-OV-3 xenograft, 4 weeks, subcutaneous injection; interferon alpha 30 mcg/kg (Q1D*5)*4 weeks; PEG interferon alpha and conjugate 150 mcg/kg QW x 4 weeks
Description: In order to measure the in vivo anti-cancer effect of the interferon alpha conjugate prepared in Example 1, changes in the tumor size were examined in the mice subcutaneously transplanted with human ovarian cancer cells (SK-OV-3).
5-week old Athymic BALB/c nude mice were subcutaneously injected with 1×10^8/4 mL of SK-OV-3 cells cultured in vitro, and then cultured. Thereafter, the mice were subcutaneously transplanted with solid cancer having a size of 30 mm^2. Then, the mice were divided into 4 groups (G1, G2, G3, G4) of five mice each according to the size of cancer subcutaneously transplanted.
Single administrations of a control group (Vehicle), interferon alpha (30 mcg/kg, Q1D×5 times×4 weeks, subcutaneous injection), PEG-modified interferon alpha (150 mcg/kg, QW×4 weeks, subcutaneous injection), and interferon alpha conjugate of the present invention (150 mcg/kg, QW×4 weeks, subcutaneous injection) to the groups were performed. After administration of the experimental substances, changes in the tumor size of each group were measured for 4 weeks, and tumor inhibition rate relative to the control group was determined (Table 2).

Daudi cells = assay: In vitro test on anti-proliferative efficacy in Daudi cells (CCK-8); assay type: cell-based, human; conditions: inhibition of Daudi cell proliferation, incubation 72 hours, CCK-8 absorbance at 450 nm
Description: Daudi cells were used, and RPMI1640 supplemented with 10% FBS and 10% PS was used as a culture medium and an experimental medium. Interferon alpha and interferon alpha conjugate of the present invention were diluted 4-fold with the experimental medium for 10 concentrations in 96-well round bottom plates. Each 50 μL of the diluted experimental medium was transferred to 96-well flat bottom plates. Daudi cells were centrifuged at 1000 rpm for 5 minutes, and then washed with 50 mL of PBS in a cornical tube. The cells were centrifuged at 1000 rpm for 5 minutes, and the experimental medium was added thereto, followed by counting the number of cells. Daudi cells were diluted to a concentration of 5×10^5 cell/mL, and then 100 μL was added to each well, followed by incubation at 37° C. for 72 hours. Then, 20 μL of CCK-8 was added to each well, and after 3 hours, absorbance was measured at 450 nm.
In vitro inhibitory effects of interferon alpha and interferon alpha conjugate of the present invention (long-acting interferon alpha conjugate) on cancer cell proliferation were examined by EC50 (Table 1, FIG. 1).

Molecule | Tumor inhibition rate (%, relative to vehicle) [1] [%] | Tumor inhibition rate (%, relative to vehicle) [2] [%] | Tumor inhibition rate (%, relative to vehicle) [3] [%] | median overall survival (pancreatic cancer; advanced pancreatic cancer, single administration) [months] | 1-year survival rate of pancreatic cancer patients (pancreatic cancer; metastatic pancreatic cancer) [%] | Tumor inhibition rate (%, relative to vehicle) [4] [%] | EC50 (Daudi cells) [pg/mL]
Nc1ccn([C@@H]2O[C@H](CO)[C@@H](O)C2(F)F)c(=O)n1 [Gemcitabine, 2′-deoxy-2′,2′-difluoro cytidine] | 17 | 60 | 20 | 5.7 | 18 | – | –
Interferon alpha: interferon alpha prepared according to Korean Patent No. 10-0360594; human interferon alpha-2b | – | – | – | – | – | 63.84 | 21.7
